# Laboratory results from patent US20100173873A1, “TREATMENT OF METASTASIZED TUMORS” (Novartis Vaccines and Diagnostics, Inc., priority 2005, published 2010).
# Like-named read-outs stand apart in the source and are kept apart here.
# Key:
# [1] = test system: pERK in MV4;11 tumors; assay: Target modulation in vivo, pERK in MV4;11 tumors; parameters: species or system SCID-NOD mice; conditions: 10 mg/kg/d p.o.
# Description: […]. […] For in vivo target modulation analyses, resected tumors were flash frozen, pulverized and stored at −70° C. prior to lysis with 150 mM NaCl, 1.5 mM MgCl2, 50 mM Hepes, pH 7.5, 10% glycerol, 1.0% Triton X-100, 1 mM EGTA, 50 mM NaF, 1 mM Na3VO4, 2 mM Pefabloc (Roche), and complete protease inhibitor cocktail (Roche). Protein content of the lysates was determined using the BCA assay (Bio-Rad, Hercules, Calif.). Western blot analysis for pERK was performed with a mouse antibody to pERK (1:1000, Cell Signaling, Beverly, Mass.) and incubated at 4° C. overnight. Total ERK level was evaluated by re-probing with antibody against total ERK (Cell Signaling). The membranes were then incubated for 1 hour at RT with 1:5000 horseradish peroxidase-conjugated anti-rabbit IgG (Jackson Immunoresearch, West Grove, Pa.). […] FLT3 or STAT5 phosphorylation was measured by probing with an anti-phosphotyrosine antibody (anti-pFLT3 antibody from Cell Signaling, and anti-pSTAT5 antibody from Upstate). Proteins were detected using enhanced chemiluminescence (ECL; Amersham Biosciences, Buckinghamshire, England) and visualized after exposure to Kodak film. Scanning densitometry was performed to quantify band intensities. […]
# […]. […] Tumors that were harvested after selected time points, were homogenized and analyzed for pFLT3 and pSTAT5 levels by IP/Western blot. […]
# [2] = test system: MV4;11 tumors; conditions: 30 mg/kg/d
# [3] = biological target: ERK-½; assay: In vitro kinase assay, ERK; format: biochemical; conditions: RTK table
# [4] = biological target: Raf; assay: In vitro kinase assay, Raf; format: biochemical; conditions: RTK table
# [5] = test system: pERK in MV4;11 cells; assay: pERK in MV4;11 cells (flow cytometry, Western blot); conditions: Homo sapiens, MV4-11, 3 h, read-out: Inhibition of pERK
# [6] = test system: RS4;11 tumors; assay: Subcutaneous RS4;11 xenograft model; format: in vivo, SCID-NOD mice; conditions: RS4;11 s.c., 10-150 mg/kg/d p.o.
# Description: . Animals received sterile rodent chow and water ad libitum and were housed in sterile filter-top cages with 12 hour light/dark cycles. All experiments were under the guidelines of the Association for Assessment and Accreditation of Laboratory Animal Care International.
# Cells (5×10^6 cells/mouse) were reconstituted with 50% Matrigel (Becton Dickinson) and implanted s.c. into the right flank of SCID-NOD mice. Treatments were initiated when tumors were 200-1000 mm^3, as outlined in specific study designs. Mice were randomly assigned into cohorts (typically 10 mice/group for efficacy studies and 3-5 mice/group for pharmacodynamic (PD) studies). Compound 1 was administered as a solution via oral gavage. […] . […] Response rates were defined as complete responses CR (no palpable tumor) or partial responses PR (50-99% shrinkage) compared to tumor volume at treatment initiation.
# [7] = test system: pSTAT5 in MV4;11 tumors; assay: Target modulation in vivo, pSTAT5 in MV4;11 tumors; conditions: Mus musculus, MV4-11, po
# [8] = biological target: Akt⅓; assay: In vitro kinase assay, Akt; format: biochemical; conditions: RTK table
# [9] = test system: MV4;11 cells disseminated to bone marrow; assay: Intravenous MV4;11 bone marrow engraftment model; format: in vivo, SCID-NOD mice
# Description: For processing of bone marrow (BM) cells from the mouse MV4;11 engraftment model, femurs were purged with cold saline and red blood cells lysed with FACS lysis buffer (Becton Dickinson). Percent engraftment of human leukemic cells in mouse BM was determined by staining with anti-human HLA-A,B,C-FITC (vs. isotype-matched antibody-FITC control) (BD Pharmingen).
# […]. […] Mice were monitored daily and were euthanized when moribund or early signs of loss of hind limb motility. Increased life span (ILS) of treated mice was calculated as a percent increase in median survival time (MST) vs. vehicle treated control mice.
# […]. In this model, MV4;11 cells disseminate to the bone marrow (BM), pathologically mimicking a disease pattern similar to human leukemia. […]. Histological analyses and flow cytometry were used to quantify the % engraftment of MV4;11 cells in BM. In flow cytometric analyses, human MV4;11 cells were identified in mouse BM with an anti-human HLA-A,B,C antibody which binds to an epitope on human MHCI. In vehicle-treated mice, approximately 2-19% of total isolated BM cells consisted of engrafted MV4;11 cells (day 51,). This was also corroborated by immunohistochemistry with an antibody to human mitochondria which stains MV4;11 cells identifying the human cells in the mouse BM matrix. […].
# [10] = test system: pFLT3 in MV4;11 tumors; assay: Target modulation in vivo, pFLT3 in MV4;11 tumors; parameters: species or system SCID-NOD mice; conditions: 10 mg/kg/d p.o., 48 hours post dose
# [11] = test system: pSTAT5 in MV4;11 cells; assay: pSTAT5 in MV4;11 cells (flow cytometry, Western blot); conditions: Homo sapiens, MV4-11, 3 h, read-out: Inhibition of pSTAT5
structure (smiles),measurement,setting,value
"CN1CCN(c2ccc3nc(-c4c(N)c5c(F)cccc5[nH]c4=O)[nH]c3c2)CC1 [Compound 1, 4-Amino-5-fluoro-3-[6-(4-methylpiperazin-1-yl)-1H-benzimidazol-2-yl]quinolin-2(1H)-one]",pERK levels in tumors,[1],Decreases in pERK levels
same,Phospho-ERK immunohistochemical staining,[2]; 5-day dosing period,significantly lowered
same,Ki67 staining (proliferation),[2]; after 5 doses,reduced Ki67 staining
same,"Apoptosis (activated caspase-3, cleaved PARP staining)",[2]; day 5,increased activated caspase-3 and cleaved PARP staining
same,IC50,[3],> 10 µM
same,IC50,[4],> 10 µM
same,inhibition at 0.1 µM,[5],> 50%
same,Tumor regressions,[6],no regressions were observed
same,inhibition at 10 mg/kg,"[7]; 8 h, read-out: Inhibition of STAT5 phosphorylation in tumors",~90%
same,inhibition at 10 mg/kg,"[7]; 24 h, read-out: Inhibition of STAT5 phosphorylation in tumors",~85%
same,inhibition at 10 mg/kg,"[7]; 48 h, read-out: Inhibition of p-STAT5 in tumors",~60%
same,IC50,[8],> 10 µM
same,"Survival (Kaplan-Meier, FIG. 6)",[9]; 20 mg/kg daily or 7 days on/7 days off,prolongs survival
same,Median survival time (MST),"[9]; 20 mg/kg p.o. 7 days on/7 days off, 5 cycles",118 days
same,Increased life span (ILS),"[9]; 20 mg/kg p.o. 7 days on/7 days off, 5 cycles, vs. vehicle",131%
same,Long-term survivors (MST >160 days),[9]; 20 mg/kg p.o. daily,4 mice
same,Median survival time (MST),"[9]; 20 mg/kg p.o. daily, day 23-100",134 days
same,Tumor cells in BM of surviving mice (anti-human mitochondria IHC),[9]; day 167,no evidence of tumor cells
same,Phospho-FLT3 in tumors,[10],returned closer to baseline levels
same,inhibition at 0.1 µM,[11],> 50%
